Reference: patent US12570659B2, “Bicyclic heteroaryl compounds useful as IRAK4 inhibitors” (BRISTOL-MYERS SQUIBB COMPANY, priority 2019, dated 2026)

Tests used:
[1] = target: IRAK4 (Homo sapiens (Human), UniProt Q9NWZ3); test: IRAK4 Inhibition Assay; type: biochemical; conditions: ATP 500 μM; IRAK4 0.6 nM; 60 min room temperature
In short: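 Reaction started by combining IRAK4 with substrates and compound, run 60 min at room temperature and stopped with 35 mM EDTA. Fluorescent substrate and phosphorylated product were separated electrophoretically on a Caliper LabChip; inhibition normalized to no-enzyme (100%) and vehicle-only (0%) controls.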

[2] = target: JAK3 kinase (Homo sapiens (Human), UniProt P52333); test: JAK3 Homogeneous Time Resolved Fluorescence (HTRF) Assay; type: binding; conditions: for IC50: competition binding with fluorescein-labeled ATP competitive probe; for Ratio of JAK3 IC50 to IRAK4 IC50: selectivity for IRAK4 over JAK3
JAK3 kinase, sequence (P52333 whole entry): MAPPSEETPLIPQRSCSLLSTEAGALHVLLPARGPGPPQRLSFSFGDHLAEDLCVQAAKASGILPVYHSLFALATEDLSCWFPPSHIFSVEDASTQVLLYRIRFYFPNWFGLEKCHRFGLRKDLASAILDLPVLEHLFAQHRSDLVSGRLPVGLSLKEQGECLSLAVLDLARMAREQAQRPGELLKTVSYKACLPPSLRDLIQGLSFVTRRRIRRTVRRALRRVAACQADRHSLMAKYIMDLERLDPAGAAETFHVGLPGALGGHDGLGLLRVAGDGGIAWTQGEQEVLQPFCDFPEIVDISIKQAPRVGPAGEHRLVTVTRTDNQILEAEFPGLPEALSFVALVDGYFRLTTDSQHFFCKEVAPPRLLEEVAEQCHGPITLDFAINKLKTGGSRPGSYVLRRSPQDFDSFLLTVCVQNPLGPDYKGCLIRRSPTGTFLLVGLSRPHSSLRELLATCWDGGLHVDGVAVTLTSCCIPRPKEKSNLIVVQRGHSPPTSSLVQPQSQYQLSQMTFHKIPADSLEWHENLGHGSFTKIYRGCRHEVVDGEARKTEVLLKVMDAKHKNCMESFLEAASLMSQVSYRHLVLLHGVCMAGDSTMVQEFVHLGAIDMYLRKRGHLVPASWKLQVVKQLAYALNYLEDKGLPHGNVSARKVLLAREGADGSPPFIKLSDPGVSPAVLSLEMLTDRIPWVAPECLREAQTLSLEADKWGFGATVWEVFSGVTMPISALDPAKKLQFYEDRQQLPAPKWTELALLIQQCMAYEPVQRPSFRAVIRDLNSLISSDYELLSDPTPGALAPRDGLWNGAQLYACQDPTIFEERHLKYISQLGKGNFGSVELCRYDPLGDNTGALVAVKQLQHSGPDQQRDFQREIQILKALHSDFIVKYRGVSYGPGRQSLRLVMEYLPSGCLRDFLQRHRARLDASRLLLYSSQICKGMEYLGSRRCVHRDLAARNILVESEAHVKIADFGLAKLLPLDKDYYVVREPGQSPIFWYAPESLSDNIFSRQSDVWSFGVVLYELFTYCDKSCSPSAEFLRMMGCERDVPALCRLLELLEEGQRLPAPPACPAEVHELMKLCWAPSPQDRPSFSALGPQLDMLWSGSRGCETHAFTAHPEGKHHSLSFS
In short: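 TR-FRET competition binding: 1 nM His- or GST-tagged JAK3 with 0.2 nM Tb-labeled anti-tag antibody, fluorescein ATP-competitive probe at its Kd, and compound for one hour. FRET read at 495/520 nm, normalized to no-compound signal. IC50 from 11 concentrations, 4-parameter logistic fit.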

IRAK4, sequence (Q9NWZ3 whole entry, species assumed): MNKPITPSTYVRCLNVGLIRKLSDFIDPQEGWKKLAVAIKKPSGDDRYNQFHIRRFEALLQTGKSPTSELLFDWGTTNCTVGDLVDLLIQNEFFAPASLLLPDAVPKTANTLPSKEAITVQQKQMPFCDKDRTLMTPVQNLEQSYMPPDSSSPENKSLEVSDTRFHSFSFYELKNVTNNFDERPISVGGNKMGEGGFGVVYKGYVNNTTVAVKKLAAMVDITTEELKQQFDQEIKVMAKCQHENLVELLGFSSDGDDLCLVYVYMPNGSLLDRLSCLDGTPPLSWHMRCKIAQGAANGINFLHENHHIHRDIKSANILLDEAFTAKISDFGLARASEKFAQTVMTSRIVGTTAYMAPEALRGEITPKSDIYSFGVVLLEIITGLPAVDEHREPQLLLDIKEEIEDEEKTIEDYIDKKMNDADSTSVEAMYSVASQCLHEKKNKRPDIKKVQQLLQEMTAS

## CC(C)(O)[C@H](F)CNC(=O)c1cnn2cc(-c3ccncc3)cc2c1NC1CCOCC1 [Example 9, (R)—N-(2-fluoro-3-hydroxy-3-methylbutyl)-6-(pyridin-4-yl)-4-((tetrahydro-2H-pyran-4-yl)amino) pyrrolo[1,2-b] pyridazine-3-carboxamide]
[1]
  IC50: 17 nM
[2]
  IC50: > 50000 nM
  Ratio of JAK3 IC50 to IRAK4 IC50: >2941

## CC(C)Nc1c(C(=O)NC[C@@H](F)C(C)(C)O)cnc2cc(-c3cncc(F)c3)nn12 [Example 130, (R)—N-(2-fluoro-3-hydroxy-3-methylbutyl)-2-(5-fluoropyridin-3-yl)-7-(isopropylamino) pyrazolo[1,5-a]pyrimidine-6-carboxamide]
[1]
  IC50: 110 nM
[2]
  IC50: > 10000 nM
  Ratio of JAK3 IC50 to IRAK4 IC50: >91

## CC(C)Nc1c(C(=O)NC[C@@H](F)C(C)(C)O)cnn2cc(-c3ccncc3F)cc12 [Example 47, (R)—N-(2-fluoro-3-hydroxy-3-methylbutyl)-6-(3-fluoropyridin-4-yl)-4-(isopropylamino)pyrrolo[1,2-b]pyridazine-3-carboxamide]
[1]
  IC50: 3.5 nM
[2]
  IC50: > 50000 nM
  Ratio of JAK3 IC50 to IRAK4 IC50: >14286

## CC(C)(O)CCNc1c(C(=O)NC[C@@H](F)C(C)(C)O)cnn2cc(-c3cccnc3F)cc12 [Example 22, (R)—N-(2-fluoro-3-hydroxy-3-methylbutyl)-6-(2-fluoropyridin-3-yl)-4-((3-hydroxy-3-methylbutyl)amino)pyrrolo[1,2-b]pyridazine-3-carboxamide]
[1]
  IC50: 180 nM
[2]
  IC50: > 50000 nM
  Ratio of JAK3 IC50 to IRAK4 IC50: >278

## CC(C)(O)[C@H](F)CNC(=O)c1cnc2cc(-c3cccnc3)nn2c1N[C@H]1CCN(c2cnc(F)nc2)C1 [Example 138, N—((R)-2-fluoro-3-hydroxy-3-methylbutyl)-7-(((S)-1-(2-fluoropyrimidin-5-yl)pyrrolidin-3-yl)amino)-2-(pyridin-3-yl) pyrazolo[1,5-a]pyrimidine-6-carboxamide]
[1]
  IC50: 640 nM
[2]
  IC50: > 10000 nM
  Ratio of JAK3 IC50 to IRAK4 IC50: >16

## Cc1cc(F)ncc1-c1cc2c(NCCC(C)(C)O)c(C(=O)NC[C@@H](F)C(C)(C)O)cnn2c1 [Example 24, (R)—N-(2-fluoro-3-hydroxy-3-methylbutyl)-6-(6-fluoro-4-methylpyridin-3-yl)-4-((3-hydroxy-3-methylbutyl)amino)pyrrolo[1,2-b]pyridazine-3-carboxamide]
[1]
  IC50: 140 nM
[2]
  IC50: > 10000 nM
  Ratio of JAK3 IC50 to IRAK4 IC50: >71

## CC(C)Nc1c(C(=O)NC[C@@H](F)C(C)(C)O)cnn2cc(-c3cccc(CN4CCOCC4)c3)cc12 [Example 14, (R)—N-(2-fluoro-3-hydroxy-3-methylbutyl)-4-(isopropylamino)-6-(3-(morpholinomethyl)phenyl) pyrrolo[1,2-b]pyridazine-3-carboxamide]
[1]
  IC50: 1670 nM
[2]
  IC50: > 10000 nM
  Ratio of JAK3 IC50 to IRAK4 IC50: >6

## CC(C)(O)[C@H](F)CNC(=O)c1cnc2cc(-c3cccnc3)nn2c1NCC(F)F [Example 129, (R)-7-((2,2-difluoroethyl)amino)-N-(2-fluoro-3-hydroxy-3-methylbutyl)-2-(pyridin-3-yl) pyrazolo[1,5-a]pyrimidine-6-carboxamide]
[1]
  IC50: 300 nM
[2]
  IC50: > 10000 nM
  Ratio of JAK3 IC50 to IRAK4 IC50: >33

## CC(C)(O)[C@H](F)CNC(=O)c1cnc2cc(-c3ccncc3F)nn2c1NCCC1CCCCO1 (stereo partly drawn) [Example 160, N—((R)-2-fluoro-3-hydroxy-3-methylbutyl)-2-(3-fluoropyridin-4-yl)-7-((2-(tetrahydro-2H-pyran-2-yl)ethyl)amino)pyrazolo[1,5-a]pyrimidine-6-carboxamide]
[1]
  IC50: 45 nM
[2]
  IC50: > 50000 nM
  Ratio of JAK3 IC50 to IRAK4 IC50: >1111

## Cc1ccc(-c2cc3ncc(C(=O)NC[C@@H](F)C(C)(C)O)c(NC(C)C)n3n2)cn1 [Example 131, (R)—N-(2-fluoro-3-hydroxy-3-methylbutyl)-7-(isopropylamino)-2-(6-methylpyridin-3-yl)pyrazolo[1,5-a]pyrimidine-6-carboxamide]
[1]
  IC50: 20 nM
[2]
  IC50: > 50000 nM
  Ratio of JAK3 IC50 to IRAK4 IC50: >2500

## CC(=O)N[C@H]1CC[C@H](NC(=O)c2cnn3cc(-c4ccc(F)cn4)cc3c2NC(C)C)CC1 [Example 82, N-((1r,4r)-4-acetamidocyclohexyl)-6-(5-fluoropyridin-2-yl)-4-(isopropylamino)pyrrolo[1,2-b]pyridazine-3-carboxamide]
[1]
  IC50: 34 nM
[2]
  IC50: > 50000 nM
  Ratio of JAK3 IC50 to IRAK4 IC50: >1471

## CC(=O)N[C@H]1CC[C@H](NC(=O)c2cnn3cc(-c4ccc(C(N)=O)cc4F)cc3c2NC(C)C)CC1 [Example 76, N-((1r,4r)-4-acetamidocyclohexyl)-6-(4-carbamoyl-2-fluorophenyl)-4-(isopropylamino) pyrrolo[1,2-b]pyridazine-3-carboxamide]
[1]
  IC50: 92 nM
[2]
  IC50: > 50000 nM
  Ratio of JAK3 IC50 to IRAK4 IC50: >543

## COc1ccc(-c2cc3ncc(C(=O)NC[C@@H](F)C(C)(C)O)c(NC(C)C)n3n2)cn1 [Example 142, (R)—N-(2-fluoro-3-hydroxy-3-methylbutyl)-7-(isopropylamino)-2-(6-methoxypyridin-3-yl)pyrazolo[1,5-a]pyrimidine-6-carboxamide]
[1]
  IC50: 140 nM
[2]
  IC50: > 10000 nM
  Ratio of JAK3 IC50 to IRAK4 IC50: >71

## CC(C)Nc1c(C(=O)NCCC(C)(C)O)cnn2cc(-c3cn[nH]c3)nc12 [Example 107, N-(3-hydroxy-3-methylbutyl)-8-(isopropylamino)-2-(1H-pyrazol-4-yl)imidazo[1,2-b]pyridazine-7-carboxamide]
[1]
  IC50: 90 nM
[2]
  IC50: > 50000 nM
  Ratio of JAK3 IC50 to IRAK4 IC50: >556

## CC(C)Nc1c(C(=O)NC[C@@H](F)C(C)(C)O)cnc2cc(-c3cccc(N)c3)nn12 [Example 157, (R)-2-(3-aminophenyl)-N-(2-fluoro-3-hydroxy-3-methylbutyl)-7-(isopropylamino) pyrazolo[1,5-a]pyrimidine-6-carboxamide]
[1]
  IC50: 31 nM
[2]
  IC50: > 50000 nM
  Ratio of JAK3 IC50 to IRAK4 IC50: >1613

## Cc1cc(F)ncc1-c1cc2c(NC(C)C)c(C(=O)NC3CCN(S(C)(=O)=O)CC3)cnn2c1 [Example 86, 6-(6-fluoro-4-methylpyridin-3-yl)-4-(isopropylamino)-N-(1-(methylsulfonyl)piperidin-4-yl)pyrrolo[1,2-b]pyridazine-3-carboxamide]
[1]
  IC50: 46 nM
[2]
  IC50: > 50000 nM
  Ratio of JAK3 IC50 to IRAK4 IC50: >1087

## COC(=O)c1cncc(-c2cc3ncc(C(=O)NC[C@@H](F)C(C)(C)O)c(NC(C)C)n3n2)c1 [Example 149, methyl (R)-5-(6-((2-fluoro-3-hydroxy-3-methylbutyl)carbamoyl)-7-(isopropylamino)pyrazolo[1,5-a]pyrimidin-2-yl)nicotinate]
[1]
  IC50: 210 nM
[2]
  IC50: > 50000 nM
  Ratio of JAK3 IC50 to IRAK4 IC50: >238

## CC(C)Nc1c(C(=O)NC[C@@H](F)C(C)(C)O)cnn2cc(-c3cncs3)nc12 [Example 102, (R)—N-(2-fluoro-3-hydroxy-3-methylbutyl)-8-(isopropylamino)-2-(thiazol-5-yl)imidazo[1,2-b]pyridazine-7-carboxamide]
[1]
  IC50: 22 nM
[2]
  IC50: > 50000 nM
  Ratio of JAK3 IC50 to IRAK4 IC50: >2273

## CC(C)Nc1c(C(=O)NC[C@@H](F)C(C)(C)O)cnn2cc(-c3cccnc3F)nc12 [Example 103, (R)—N-(2-fluoro-3-hydroxy-3-methylbutyl)-2-(2-fluoropyridin-3-yl)-8-(isopropylamino)imidazo[1,2-b]pyridazine-7-carboxamide]
[1]
  IC50: 45 nM
[2]
  IC50: > 50000 nM
  Ratio of JAK3 IC50 to IRAK4 IC50: >1111

## CC(C)Nc1c(C(=O)NCCC(C)(C)O)cnn2cc(-c3ccncc3)nc12 [Example 105, N-(3-hydroxy-3-methylbutyl)-8-(isopropylamino)-2-(pyridin-4-yl)imidazo[1,2-b]pyridazine-7-carboxamide]
[1]
  IC50: 62 nM
[2]
  IC50: > 50000 nM
  Ratio of JAK3 IC50 to IRAK4 IC50: >806

## COc1cc(-c2cc3c(NC4CCOCC4)c(C(=O)NC[C@@H](F)C(C)(C)O)cnn3c2)ccn1 [Example 11, (R)—N-(2-fluoro-3-hydroxy-3-methylbutyl)-6-(2-methoxypyridin-4-yl)-4-((tetrahydro-2H-pyran-4-yl)amino)pyrrolo[1,2-b]pyridazine-3-carboxamide]
[1]
  IC50: 86 nM
[2]
  IC50: > 50000 nM
  Ratio of JAK3 IC50 to IRAK4 IC50: >581

## COc1cccc(-c2cc3ncc(C(=O)NC[C@@H](F)C(C)(C)O)c(NC(C)C)n3n2)n1 [Example 144, (R)—N-(2-fluoro-3-hydroxy-3-methylbutyl)-7-(isopropylamino)-2-(6-methoxypyridin-2-yl)pyrazolo[1,5-a] pyrimidine-6-carboxamide]
[1]
  IC50: 1400 nM
[2]
  IC50: > 50000 nM
  Ratio of JAK3 IC50 to IRAK4 IC50: >36

## CC(C)Nc1c(C(=O)NC[C@@H](F)C(C)(C)O)cnn2cc(-c3ccnc(N4CCOCC4)c3F)cc12 [Example 53, (R)-6-(3-fluoro-2-morpholinopyridin-4-yl)-N-(2-fluoro-3-hydroxy-3-methylbutyl)-4-(isopropylamino)pyrrolo[1,2-b]pyridazine-3-carboxamide]
[1]
  IC50: 100 nM
[2]
  IC50: ~50000 nM
  Ratio of JAK3 IC50 to IRAK4 IC50: ~500

## Cc1ccccc1-c1cc2ncc(C(=O)NC[C@@H](F)C(C)(C)O)c(NC(C)C)n2n1 [Example 136, (R)—N-(2-fluoro-3-hydroxy-3-methylbutyl)-7-(isopropylamino)-2-(o-tolyl)pyrazolo[1,5-a]pyrimidine-6-carboxamide]
[1]
  IC50: 510 nM
[2]
  IC50: > 10000 nM
  Ratio of JAK3 IC50 to IRAK4 IC50: >20
